Biological target: T1, MAGL (Homo sapiens, UniProt Q99685)
T1 sequence (Q99685 1-303): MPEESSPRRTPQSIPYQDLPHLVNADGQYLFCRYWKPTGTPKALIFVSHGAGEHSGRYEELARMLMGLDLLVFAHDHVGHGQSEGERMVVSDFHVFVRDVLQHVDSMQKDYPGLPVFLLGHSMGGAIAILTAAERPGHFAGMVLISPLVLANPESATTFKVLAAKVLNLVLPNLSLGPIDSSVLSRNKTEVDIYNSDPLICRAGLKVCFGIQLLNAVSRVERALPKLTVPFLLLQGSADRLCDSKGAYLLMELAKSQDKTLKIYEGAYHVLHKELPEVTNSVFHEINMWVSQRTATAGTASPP
Assay: 2-AG assay: MAGL inhibitory activity by hydrolysis of 2-arachidonoylglycerol to arachidonic acid, mass spectrometry
Type: biochemical
Details: 2-AG assay (values marked [b])
Procedure, shortened: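 Human MAGL […] was preincubated 15 min at RT with compound ([…], 3-fold steps) in 50 mM Tris, 1 mM EDTA, 0.01% Tween. 2-AG (8 μM) was then added for 30 min at RT. Arachidonic acid was quantified by RapidFire SPE–triple quadrupole MS in negative ESI as its ratio to a d8-arachidonic acid standard.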

Structure (SMILES) | IC50
CC(C)(C)Cn1cc(-c2ccc(C(=O)N3CCN(c4nc5nc(Cl)ccc5o4)CC3)cc2C(F)(F)F)nn1 [Example 268, (4-(5-chlorooxazolo[4,5-b]pyridin-2-yl)piperazin-1-yl)(4-(1-neopentyl-1H-1,2,3-triazol-4-yl)-3-(trifluoromethyl)phenyl)methanone] | 4 nM
CC(C)(C)Cn1ncc(-c2ccc(C(=O)N3CCN(c4nc5nc(Cl)ccc5o4)CC3)cc2C(F)(F)F)n1 [Example 269, (4-(5-chlorooxazolo[4,5-b]pyridin-2-yl)piperazin-1-yl)(4-(2-neopentyl-2H-1,2,3-triazol-4-yl)-3-(trifluoromethyl)phenyl)methanone] | 6 nM
CC(C)(C)Cn1nncc1-c1ccc(C(=O)N2CCN(c3nc4nc(Cl)ccc4o3)CC2)cc1C(F)(F)F [Example 270, (4-(5-chlorooxazolo[4,5-b]pyridin-2-yl)piperazin-1-yl)(4-(1-neopentyl-1H-1,2,3-triazol-5-yl)-3-(trifluoromethyl)phenyl)methanone] | 323 nM
Cc1cc(C(=O)N2CCN(c3nc4nc(Cl)ccc4o3)CC2)cnc1-c1cn(CC(C)(C)C)nn1 [Example 271, (4-(5-chlorooxazolo[4,5-b]pyridin-2-yl)piperazin-1-yl)(5-methyl-6-(1-neopentyl-1H-1,2,3-triazol-4-yl)pyridin-3-yl)methanone] | 74 nM
Cc1cc(C(=O)N2CCN(c3nc4nc(Cl)ccc4o3)CC2)cnc1-c1cnn(CC(C)(C)C)n1 [Example 272, (4-(5-chlorooxazolo[4,5-b]pyridin-2-yl)piperazin-1-yl)(5-methyl-6-(2-neopentyl-2H-1,2,3-triazol-4-yl)pyridin-3-yl)methanone] | 9 nM
C[C@@H]1CN(C(=O)c2ccc(-c3cn(CC(C)(C)C)nn3)cc2)CCN1c1nc2nc(Cl)ccc2o1 [Example 273, [(3R)-4-(5-chlorooxazolo[4,5-b]pyridin-2-yl)-3-methyl-piperazin-1-yl]-[4-[1-(2,2-dimethylpropyl)triazol-4-yl]phenyl]methanone] | 20 nM
C[C@H]1CN(C(=O)c2ccc(-c3cn(CC(C)(C)C)nn3)cc2)CCN1c1nc2nc(Cl)ccc2o1 [Example 274, [(3S)-4-(5-chlorooxazolo[4,5-b]pyridin-2-yl)-3-methyl-piperazin-1-yl]-[4-[1-(2,2-dimethylpropyl)triazol-4-yl]phenyl]methanone] | 137 nM
Cc1cc(C(=O)N2CCN(c3nc4nc(Cl)ccc4o3)CC2)ccc1-c1nnc(CC(C)C)o1 [Example 275, [4-(5-chlorooxazolo[4,5-b]pyridin-2-yl)piperazin-1-yl]-[4-(5-isobutyl-1,3,4-oxadiazol-2-yl)-3-methyl-phenyl]methanone] | 26 nM
O=C(c1ccc(OCC2(C(F)(F)F)CC2)nc1Cl)N1CCN(c2nc3nc(Cl)ccc3o2)CC1 [Example 276, [4-(5-chlorooxazolo[4,5-b]pyridin-2-yl)piperazin-1-yl]-[2-chloro-6-[[1-(trifluoromethyl)cyclopropyl]methoxy]-3-pyridyl]methanone] | 1520 nM
Cc1ccc2oc(N3CCN(C(=O)c4ccc(-c5nnn(CC(C)(C)C)n5)cc4)CC3)nc2n1 [Example 277, (4-(5-methyloxazolo[4,5-b]pyridin-2-yl)piperazin-1-yl)(4-(2-neopentyl-2H-tetrazol-5-yl)phenyl)methanone] | 9 nM
CC(C)(C)c1nnc(-c2ncc(C(=O)N3CCN(c4nc5nc(Cl)ccc5o4)CC3)cc2F)o1 [Example 278, [6-(5-tert-butyl-1,3,4-oxadiazol-2-yl)-5-fluoro-3-pyridyl]-[4-(5-chlorooxazolo[4,5-b]pyridin-2-yl)piperazin-1-yl]methanone] | 801 nM
CC(C)(C)Cn1cc(-c2ncc(C(=O)N3CCN(c4nc5nc(Cl)ccc5o4)CC3)cc2C(F)(F)F)cn1 [Example 279, [4-(5-chlorooxazolo[4,5-b]pyridin-2-yl)piperazin-1-yl]-[6-[1-(2,2-dimethylpropyl)pyrazol-4-yl]-5-(trifluoromethyl)-3-pyridyl]methanone] | 11 nM
CC(C)(CF)c1nnc(-c2ccc(C(=O)N3CCN(c4nc5nc(Cl)ccc5o4)CC3)cc2F)o1 [Example 280, [4-(5-chlorooxazolo[4,5-b]pyridin-2-yl)piperazin-1-yl]-[3-fluoro-4-[5-(2-fluoro-1,1-dimethyl-ethyl)-1,3,4-oxadiazol-2-yl]phenyl]methanone] | 119 nM
CC(C)(C)c1nnc(-c2ccc(C(=O)N3CCN(c4nc5nc(Cl)ccc5o4)CC3)cc2F)o1 [Example 281, [4-(5-tert-butyl-1,3,4-oxadiazol-2-yl)-3-fluoro-phenyl]-[4-(5-chlorooxazolo[4,5-b]pyridin-2-yl)piperazin-1-yl]methanone] | 36 nM
Cc1ccc2oc(N3CCN(C(=O)c4cnc(-c5cnn(CC(C)(C)C)c5)c(C(F)(F)F)c4)CC3)nc2n1 [Example 282, [6-[1-(2,2-dimethylpropyl)pyrazol-4-yl]-5-(trifluoromethyl)-3-pyridyl]-[4-(5-methyloxazolo[4,5-b]pyridin-2-yl)piperazin-1-yl]methanone] | 11 nM
CC(C)(C)Cn1nnc(-c2ccc(C(=O)N3CCN(c4nc5nc(Cl)ccc5o4)CC3)cc2)n1 [Example 283, (4-(5-chlorooxazolo[4,5-b]pyridin-2-yl)piperazin-1-yl)(4-(2-neopentyl-2H-tetrazol-5-yl)phenyl)methanone] | 3 nM
CC(C)(C)c1nc(-c2ccc(C(=O)N3CC4CCC(C3)N4c3nc4nc(Cl)ccc4o3)cc2)no1 [Example 284, [4-(5-tert-butyl-1,2,4-oxadiazol-3-yl)phenyl]-[8-(5-chlorooxazolo[4,5-b]pyridin-2-yl)-3,8-diazabicyclo[3.2.1]octan-3-yl]methanone] | 350 nM
CC(C)(C)Cn1cc(-c2ccc(C(=O)N3CCN(c4nc5nc(Cl)ccc5o4)C(CO)C3)cc2)nn1 (centres unmarked) [Example 285, [4-(5-chlorooxazolo[4,5-b]pyridin-2-yl)-3-(hydroxymethyl)piperazin-1-yl]-[4-[1-(2,2-dimethylpropyl)triazol-4-yl]phenyl]methanone] | 2050 nM
CC(C)(C)Cn1cc(-c2ccc(C(=O)N3CCN(c4nc5nc(F)ccc5o4)CC3)cc2)nn1 [Example 286, [4-[1-(2,2-dimethylpropyl)triazol-4-yl]phenyl]-[4-(5-fluorooxazolo[4,5-b]pyridin-2-yl)piperazin-1-yl]methanone] | 45 nM
Cc1cc(C(=O)N2CCN(c3nc4nc(Cl)ccc4o3)CC2)ccc1-n1cnc(C(C)(C)C)n1 [Example 287, [4-(3-tert-butyl-1,2,4-triazol-1-yl)-3-methyl-phenyl]-[4-(5-chlorooxazolo[4,5-b]pyridin-2-yl)piperazin-1-yl]methanone] | 114 nM
Cc1ccc2oc(N3CCN(C(=O)c4ccc(-n5cnc(C(C)(C)C)n5)c(C)c4)CC3)nc2n1 [Example 288, [4-(3-tert-butyl-1,2,4-triazol-1-yl)-3-methyl-phenyl]-[4-(5-methyloxazolo[4,5-b]pyridin-2-yl)piperazin-1-yl]methanone] | 175 nM
Cc1ccc2oc(N3CCN(C(=O)c4ccc(-n5cnc(C(C)(C)C)n5)c(Cl)c4)CC3)nc2n1 [Example 291, [4-(3-tert-butyl-1,2,4-triazol-1-yl)-3-chloro-phenyl]-[4-(5-methyloxazolo[4,5-b]pyridin-2-yl)piperazin-1-yl]methanone] | 172 nM
CC(C)(C)c1ncn(-c2ccc(C(=O)N3CCN(c4nc5nc(Cl)ccc5o4)CC3)cc2Cl)n1 [Example 292, [4-(3-tert-butyl-1,2,4-triazol-1-yl)-3-chloro-phenyl]-[4-(5-chlorooxazolo[4,5-b]pyridin-2-yl)piperazin-1-yl]methanone] | 75 nM
CC(C)(C)Cn1cnc(-c2ccc(C(=O)N3CCN(c4nc5nc(Cl)ccc5o4)CC3)cc2F)n1 [Example 293, [4-(5-chlorooxazolo[4,5-b]pyridin-2-yl)piperazin-1-yl]-[4-[1-(2,2-dimethylpropyl)-1,2,4-triazol-3-yl]-3-fluoro-phenyl]methanone] | 20 nM
Cc1ccc2oc(N3CCN(C(=O)c4ccc(-c5ncn(CC(C)(C)C)n5)c(F)c4)CC3)nc2n1 [Example 294, [4-[1-(2,2-dimethylpropyl)-1,2,4-triazol-3-yl]-3-fluoro-phenyl]-[4-(5-methyloxazolo[4,5-b]pyridin-2-yl)piperazin-1-yl]methanone] | 34 nM
CC1CN(c2nc3nc(Cl)ccc3o2)CCN1C(=O)c1ccc(-c2cn(CC(C)(C)C)nn2)cc1 (centres unmarked) [Example 295, [4-(5-chlorooxazolo[4,5-b]pyridin-2-yl)-2-methyl-piperazin-1-yl]-[4-[1-(2,2-dimethylpropyl)triazol-4-yl]phenyl]methanone] | 243 nM
Cc1ccc2oc(N3CCN(C(=O)c4ccc(OCC5(C(F)(F)F)CC5)nc4Cl)CC3)nc2n1 [Example 296, [2-chloro-6-[[1-(trifluoromethyl)cyclopropyl]methoxy]-3-pyridyl]-[4-(5-methyloxazolo[4,5-b]pyridin-2-yl)piperazin-1-yl]methanone] | 2620 nM
CC(C)(C)c1nc(-c2ccc(C(=O)N3C4CCC3CN(c3nc5nc(Cl)ccc5o3)C4)cc2)no1 [Example 297, [4-(5-tert-butyl-1,2,4-oxadiazol-3-yl)phenyl]-[3-(5-chlorooxazolo[4,5-b]pyridin-2-yl)-3,8-diazabicyclo[3.2.1]octan-8-yl]methanone] | 100 nM
CC(C)(F)Cc1nnc(-c2ccc(C(=O)N3CCN(c4nc5nc(Cl)ccc5o4)CC3)cc2F)o1 [Example 298, [4-(5-chlorooxazolo[4,5-b]pyridin-2-yl)piperazin-1-yl]-[3-fluoro-4-[5-(2-fluoro-2-methyl-propyl)-1,3,4-oxadiazol-2-yl]phenyl]methanone] | 95 nM
